This note sets out measurements from US7323447B2, “Hepatitis C virus inhibitors” (Bristol-Myers Squibb Company, priority 2005, dated 2008).

pEC50, pIC50: −log10 of the molar value.

Assay [1] has as its system HCV replicon (Renilla luciferase) in HUH-7 cells. As to the kind of experiment: HCV replicon luciferase reporter assay. The settings on record: Huh-7, 96 h, 4 days. The format is cell-based, Hepatitis C virus (strain 1b). The text has this:
As a secondary assay, EC50 determinations from the replicon FRET assay were confirmed in a replicon luciferase reporter assay. Utilization of a replicon luciferase reporter assay was first described by Krieger et al (Krieger N, Lohmann V, and Bartenschlager R, J. Virol. 75(10):4614-4624 (2001)). The replicon construct described for our FRET assay was modified by inserting cDNA encoding a humanized form of the Renilla luciferase gene and a linker sequence fused directly to the 3′-end of the luciferase gene. This insert was introduced into the replicon construct using an Asc1 restriction site located in core, directly upstream of the neomycin marker gene. The adaptive mutation at position 1179 (serine to isoleucine) was also introduced (Blight K J, Kolykhalov, A A, Rice, C M, Science 290(5498): 1972-1974). A stable cell line constitutively expressing this HCV replicon construct was generated as described above. […] Following 4 days in a 37° C./5% CO2 incubator, cells were analyzed for Renilla Luciferase activity using the Promega Dual-Glo Luciferase Assay System. […] Plates were read on a Packard TopCount NXT using a luminescence program.
The percentage inhibition was calculated using the formula below: […]
The values were graphed and analyzed using XLfit to obtain the EC50 value.
Background: In antiviral work, replicon cells carry a viral genome segment that copies itself.

Assay [2] has as its target T1, porcine pancreatic elastase (PPE) (Sus scrofa, UniProt P00772).
T1 construct: purchased Sigma or EMDbiosciences
As to the kind of experiment: Specificity assay, porcine pancreatic elastase. The settings on record: read-out: PPE activity in the specificity assays (IC50). In kind it is biochemical. The protocol: The specificities of compounds of the present disclosure were determined against a variety of serine proteases: human neutrophil elastase (HNE), porcine pancreatic elastase (PPE) and human pancreatic chymotrypsin and one cysteine protease: human liver cathepsin B. In all cases, a 96-well plate format protocol using colorimetric p-nitroaniline (pNA) substrate or fluorometric Amino-Methyl-Coumarin (AMC) substrate, specific for each enzyme was used as described previously (PCT Patent Application No. WO 00/09543) with some modifications. All enzymes were purchased from Sigma or EMDbiosciences while the substrates were from Bachem.
Each pNA assay included a 2 hours enzyme-inhibitor pre-incubation at room temperature followed by addition of substrate and hydrolysis to ˜15% conversion as measured on a Spectramax Pro microplate reader. The cathepsin B assay was initiated by adding substrate to a 10 min enzyme-inhibitor pre-incubation at room temperature, and the assay plate measured immediately using the Cytofluor Series 4000. Compound concentrations varied from 100 to 0.4 μM depending on their potency. […]
The percentage of inhibition was calculated using the formula: [1−((UVinh−UVblank)/(UVctl−UVblank))]×100 […]

T1 sequence (P00772 27-266): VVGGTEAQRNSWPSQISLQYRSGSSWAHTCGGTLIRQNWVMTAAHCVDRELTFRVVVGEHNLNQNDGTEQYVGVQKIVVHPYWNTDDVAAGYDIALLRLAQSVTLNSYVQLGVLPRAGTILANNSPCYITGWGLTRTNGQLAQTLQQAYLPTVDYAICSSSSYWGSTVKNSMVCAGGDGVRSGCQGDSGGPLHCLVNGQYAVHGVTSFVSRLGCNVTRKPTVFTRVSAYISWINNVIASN

`C=C[C@@H]1C[C@]1(NC(=O)[C@@H]1C[C@@H](OC(=O)N2Cc3cccc(F)c3C2)CN1C(=O)[C@@H](OC(=O)NC(C)(C)C)C(C)(C)C)C(=O)NS(=O)(=O)C1CC1` [Example 56Compound 56] had a pEC50 in assay [1] of 6.61. In assay [2], the pIC50 was less than 4.00.

One may read the pEC50 as the negative decadic logarithm of the EC50, by convention in mol/L. A low value points to a high EC50. The term pIC50 denotes −log10 of the IC50, conventionally taken in molar units.
